In patent publication US4684664A, “Derivatives of β-(4-isocyano-1,2,3,4-diepoxycyclopentyl) acrylic acid” (Kureha Kagaku Kogyo Kabushiki Kaisha, priority 1984, dated 1987):
Values after ≈ are worked out from the molar mass of the structure shown.

Tests used:
Assay type in all cases: cell-based
[1] = tested on: Streptococcus pyogenes IFO 3340; experiment: Antibacterial activity, agar-dilution MIC, organism No. 26; settings: Streptococcus pyogenes, IFO3340; Organism No. 26, bouillon-agar; read-out: Minimum Inhibitory Concentration
In short: (§1)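 Dilution in agar (bouillon-agar base) is the format; activity is expressed as MIC, μg per ml medium.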

[2] = tested on: Bacillus subtilis ATCC 6633; experiment: Antibacterial activity, agar-dilution MIC, organism No. 14; settings: Bacillus subtilis, ATCC6633; Organism No. 14, bouillon-agar; read-out: Minimum Inhibitory Concentration
In short: as §1

[3] = tested on: Streptococcus pyogenes Cook; experiment: Antibacterial activity, agar-dilution MIC, organism No. 4; settings: Streptococcus pyogenes; Organism No. 4, bouillon-agar; read-out: Minimum Inhibitory Concentration
In short: as §1

[4] = tested on: Micrococcus luteus ATCC 9341; experiment: Antibacterial activity, agar-dilution MIC, organism No. 25; settings: Micrococcus luteus, ATCC9341; Organism No. 25, bouillon-agar; read-out: Minimum Inhibitory Concentration
In short: as §1

[5] = tested on: Salmonella typhimurium IID 971; experiment: Antibacterial activity, agar-dilution MIC, organism No. 8; settings: Salmonella enterica; Organism No. 8, bouillon-agar; read-out: Minimum Inhibitory Concentration
In short: as §1

[6] = tested on: Pseudomonas aeruginosa IFO 3445; experiment: Antibacterial activity, agar-dilution MIC, organism No. 15; settings: Pseudomonas aeruginosa, IFO3445; Organism No. 15, bouillon-agar; read-out: Minimum Inhibitory Concentration
In short: as §1

[7] = tested on: Serratia marcescens IAM 1184; experiment: Antibacterial activity, agar-dilution MIC, organism No. 13; settings: Serratia marcescens, IAM1184; Organism No. 13, bouillon-agar; read-out: Minimum Inhibitory Concentration
In short: as §1

[8] = tested on: Enterobacter aerogenes ATCC 13048; experiment: Antibacterial activity, agar-dilution MIC, organism No. 23; settings: Klebsiella aerogenes, ATCC13048; Organism No. 23, bouillon-agar; read-out: Minimum Inhibitory Concentration
In short: as §1

[9] = tested on: Candida albicans IAM 4905; experiment: Antifungal activity, agar-dilution MIC, organism No. 29; settings: Candida albicans, IAM4905; Organism No. 29, bouillon-agar; read-out: Minimum Inhibitory Concentration
In short: as §1

[10] = tested on: Salmonella typhi 901; experiment: Antibacterial activity, agar-dilution MIC, organism No. 9; settings: Salmonella enterica, TYPHI, read-out: Minimum Inhibitory Concentration
In short: as §1

[11] = tested on: Escherichia coli K12 C600 IAM 1264; experiment: Antibacterial activity, agar-dilution MIC, organism No. 6; settings: Escherichia coli, IAM1264; Organism No. 6, bouillon-agar; read-out: Minimum Inhibitory Concentration
In short: as §1

[12] = tested on: Proteus mirabilis IFO 3849; experiment: Antibacterial activity, agar-dilution MIC, organism No. 19; settings: Proteus mirabilis, IFO3849; Organism No. 19, bouillon-agar; read-out: Minimum Inhibitory Concentration
In short: as §1

[13] = tested on: Proteus rettgeri IFO 3850; experiment: Antibacterial activity, agar-dilution MIC, organism No. 22; settings: Providencia rettgeri, IFO3850; Organism No. 22, bouillon-agar; read-out: Minimum Inhibitory Concentration
In short: as §1

[14] = tested on: Enterobacter cloacae 963; experiment: Antibacterial activity, agar-dilution MIC, organism No. 24; settings: Enterobacter cloacae, 963; Organism No. 24, bouillon-agar; read-out: Minimum Inhibitory Concentration
In short: as §1

[15] = tested on: Salmonella enteritidis G 14; experiment: Antibacterial activity, agar-dilution MIC, organism No. 12; settings: Salmonella enterica, ENTERITIDIS; Organism No. 12, bouillon-agar; read-out: Minimum Inhibitory Concentration
In short: as §1

[16] = tested on: Proteus vulgaris OX-19; experiment: Antibacterial activity, agar-dilution MIC, organism No. 20; settings: Proteus vulgaris, OX19; Organism No. 20, bouillon-agar; read-out: Minimum Inhibitory Concentration
In short: as §1

[17] = tested on: Proteus morganii IFO 3848; experiment: Antibacterial activity, agar-dilution MIC, organism No. 18; settings: Morganella morganii, IFO3848; Organism No. 18, bouillon-agar; read-out: Minimum Inhibitory Concentration
In short: as §1

[18] = tested on: Proteus vulgaris HX-19; experiment: Antibacterial activity, agar-dilution MIC, organism No. 21; settings: Proteus vulgaris, HX19; Organism No. 21, bouillon-agar; read-out: Minimum Inhibitory Concentration
In short: as §1

[19] = tested on: Pseudomonas aeruginosa PAO 1; experiment: Antibacterial activity, agar-dilution MIC, organism No. 17; settings: Pseudomonas aeruginosa, PAO1; Organism No. 17, bouillon-agar; read-out: Minimum Inhibitory Concentration
In short: as §1

[20] = tested on: Salmonella paratyphi-A 1015; experiment: Antibacterial activity, agar-dilution MIC, organism No. 10; settings: Salmonella enterica, PARATYPHI, read-out: Minimum Inhibitory Concentration
In short: as §1

[21] = tested on: Staphylococcus aureus FDA 209PJc-1; experiment: Antibacterial activity, agar-dilution MIC, organism No. 1; settings: Staphylococcus aureus, FDA209PJC1; Organism No. 1, bouillon-agar; read-out: Minimum Inhibitory Concentration
In short: as §1

[22] = tested on: Aspergillus niger IFO 6342; experiment: Antifungal activity, agar-dilution MIC, organism No. 30; settings: Aspergillus niger, IFO6342; Organism No. 30, bouillon-agar; read-out: Minimum Inhibitory Concentration
In short: as §1

[23] = tested on: Escherichia coli NIHJ-JC-2; experiment: Antibacterial activity, agar-dilution MIC, organism No. 5; settings: Escherichia coli, NIHJJC2; Organism No. 5, bouillon-agar; read-out: Minimum Inhibitory Concentration
In short: as §1

[24] = tested on: Pseudomonas aeruginosa NCTC 10490; experiment: Antibacterial activity, agar-dilution MIC, organism No. 16; settings: Pseudomonas aeruginosa, NCTC10490; Organism No. 16, bouillon-agar; read-out: Minimum Inhibitory Concentration
In short: as §1

[25] = tested on: Streptococcus faecium IFO 3826; experiment: Antibacterial activity, agar-dilution MIC, organism No. 27; settings: Enterococcus faecium, IFO3826; Organism No. 27, bouillon-agar; read-out: Minimum Inhibitory Concentration
In short: as §1

[26] = tested on: Mycoplasma pneumoniae IID817; experiment: Antimycoplasmal activity, MIC by phenol red colour change, organism No. 28; settings: Mycoplasma, IID817; Organism No. 28, PPLO broth + 1% glucose, 37° C.; read-out: Minimum Inhibitory Concentration (MIC)
Method: Mycoplasma pneumoniae IID817 was used as the test microorganism in a culture medium prepared by adding 1% of glucose to "PPLO broth (manufactured by Difco Co.) liquid culture medium" at 37° C. with phenol red as an indicator, thereby culturing the test microorganism.

[27] = tested on: Staphylococcus aureus Terajima; experiment: Antibacterial activity, agar-dilution MIC, organism No. 2; settings: Staphylococcus aureus; Organism No. 2, bouillon-agar; read-out: Minimum Inhibitory Concentration
In short: as §1

[28] = tested on: Salmonella shottmuelleri 8006; experiment: Antibacterial activity, agar-dilution MIC, organism No. 11; settings: Salmonella, 8006; Organism No. 11, bouillon-agar; read-out: Minimum Inhibitory Concentration
In short: as §1

[29] = tested on: Klebsiella pneumoniae PCI-602; experiment: Antibacterial activity, agar-dilution MIC, organism No. 7; settings: Klebsiella pneumoniae, PCI602; Organism No. 7, bouillon-agar; read-out: Minimum Inhibitory Concentration
In short: as §1

[30] = tested on: Staphylococcus aureus MS 353; experiment: Antibacterial activity, agar-dilution MIC, organism No. 3; settings: Staphylococcus aureus, MS353; Organism No. 3, bouillon-agar; read-out: Minimum Inhibitory Concentration
In short: as §1

SMILES	MIC [1] [µg/mL]	MIC [2] [µg/mL]	MIC [3] [µg/mL]	MIC [4] [µg/mL]	MIC [5] [µg/mL]	MIC [6] [µg/mL]	MIC [7] [µg/mL]	MIC [8] [µg/mL]	MIC [9] [µg/mL]	MIC [10] [µg/mL]	MIC [11] [µg/mL]	MIC [12] [µg/mL]	MIC [13] [µg/mL]	MIC [14] [µg/mL]	MIC [15] [µg/mL]	MIC [16] [µg/mL]	MIC [17] [µg/mL]	MIC [18] [µg/mL]	MIC [19] [µg/mL]	MIC [20] [µg/mL]	further results
[C-]#[N+]C12CC3(/C=C/C(=O)Nc4ccccc4O)OC3C1O2 (stereo not drawn) [compound 58]	3.13 (≈ 11 µM)	12.5 (≈ 44 µM)	12.5 (≈ 44 µM)	0.2 (≈ 0.704 µM)	6.25 (≈ 22 µM)	> 200	12.5 (≈ 44 µM)	> 200	12.5 (≈ 44 µM)	3.13 (≈ 11 µM)	12.5 (≈ 44 µM)	12.5 (≈ 44 µM)	1.56 (≈ 5.49 µM)	100 (≈ 352 µM)	3.13 (≈ 11 µM)	0.78 (≈ 2.74 µM)	1.56 (≈ 5.49 µM)	0.78 (≈ 2.74 µM)	> 200	1.56 (≈ 5.49 µM)	MIC [21]: 3.13 µg/mL (≈ 11 µM); MIC [22]: 12.5 µg/mL (≈ 44 µM); MIC [23]: 12.5 µg/mL (≈ 44 µM); MIC [24]: > 200 µg/mL; MIC [25]: 12.5 µg/mL (≈ 44 µM); MIC [26]: < 0.2 µg/mL; MIC [27]: 3.13 µg/mL (≈ 11 µM); MIC [28]: 1.56 µg/mL (≈ 5.49 µM); MIC [29]: 0.78 µg/mL (≈ 2.74 µM); MIC [30]: 3.13 µg/mL (≈ 11 µM)
[C-]#[N+]C12CC3(/C=C/C(=O)Nc4ccc(N)cc4)OC3C1O2 (stereo not drawn) [compound 59]	6.25 (≈ 22.1 µM)	12.5 (≈ 44.1 µM)	50 (≈ 176 µM)	0.78 (≈ 2.75 µM)	12.5 (≈ 44.1 µM)	> 200	200 (≈ 706 µM)	> 200	12.5 (≈ 44.1 µM)	6.25 (≈ 22.1 µM)	25 (≈ 88.2 µM)	> 200	200 (≈ 706 µM)	> 200	6.25 (≈ 22.1 µM)	1.56 (≈ 5.51 µM)	3.13 (≈ 11 µM)	1.56 (≈ 5.51 µM)	> 200	6.25 (≈ 22.1 µM)	MIC [21]: 6.25 µg/mL (≈ 22.1 µM); MIC [22]: 12.5 µg/mL (≈ 44.1 µM); MIC [23]: 25 µg/mL (≈ 88.2 µM); MIC [24]: > 200 µg/mL; MIC [25]: 100 µg/mL (≈ 353 µM); MIC [26]: < 0.2 µg/mL; MIC [27]: 25 µg/mL (≈ 88.2 µM); MIC [28]: 6.25 µg/mL (≈ 22.1 µM); MIC [29]: 3.13 µg/mL (≈ 11 µM); MIC [30]: 6.25 µg/mL (≈ 22.1 µM)
[C-]#[N+]C12CC3(/C=C/C(=O)Nc4cccc(N)c4)OC3C1O2 (stereo not drawn) [compound 60]	3.13 (≈ 11 µM)	12.5 (≈ 44.1 µM)	25 (≈ 88.2 µM)	0.39 (≈ 1.38 µM)	12.5 (≈ 44.1 µM)	> 200	200 (≈ 706 µM)	> 200	25 (≈ 88.2 µM)	3.13 (≈ 11 µM)	25 (≈ 88.2 µM)	> 200	> 200	200 (≈ 706 µM)	6.25 (≈ 22.1 µM)	0.39 (≈ 1.38 µM)	1.56 (≈ 5.51 µM)	0.39 (≈ 1.38 µM)	> 200	3.13 (≈ 11 µM)	MIC [21]: 3.13 µg/mL (≈ 11 µM); MIC [22]: 100 µg/mL (≈ 353 µM); MIC [23]: 25 µg/mL (≈ 88.2 µM); MIC [24]: > 200 µg/mL; MIC [25]: 50 µg/mL (≈ 176 µM); MIC [26]: < 0.2 µg/mL; MIC [27]: 12.5 µg/mL (≈ 44.1 µM); MIC [28]: 3.13 µg/mL (≈ 11 µM); MIC [29]: 1.56 µg/mL (≈ 5.51 µM); MIC [30]: 3.13 µg/mL (≈ 11 µM)
